Measurements taken from patent publication US5510340A, “Antihypercholesterolemic compounds and related pharmaceutical compositions and methods of use” (SRI International, priority 1992, dated 1996).

How the values were obtained:
[1] = system: Cholesterol Levels in Plasma of Rats; assay: Assay for Lowering Cholesterol Levels in Rats Fed Drug-Containing Food Ad Libitum; type: in vivo, Male Sprague-Dawley rats; conditions: rat plasma, mean ± S.E.
Protocol: (d.) Assay for Lowering Cholesterol Levels in Rats Fed Drug-Containing Food Ad Libitum:
Male Sprague-Dawley rats weighing 150 to 200 g were used for this experiment. The animals were divided into groups of six rats each. All groups were kept on a cholesterol-free diet throughout the entire experiment. This diet was prepared by adding the test compound in small portions (usually 100 mg) to 100 g of choleserol-free diet in a 1-liter glass separatory funnel with a stopper. The diet was thoroughly mixed after each addition of the test compound. The resulting diet was kept in a refrigerator at all times. Before feeding, the diet was allowed to warm to room temperature. The animals were housed individually in metabolic cages. All test groups were allowed free access to the cholesterol-free diet containing the proper doses of the test compound. A pair-fed group was assigned to each test group and allowed free access to the cholesterol-free diet only in the amount consumed by its corresponding counterpart on the previous day. The control group was allowed free access to the cholesterol-free diet with no restriction. The food consumption and body weights of all groups were recorded daily. Blood samples were taken from all groups on day 0 and every third or fourth day throughout the entire experiment. Plasma was obtained by drawing blood into EDTA-treated centrifuge tubes and centrifuging at 3000 rpm for 10 min. The total cholesterol level and HDL in each plasma sample were determined using a Gemini autoanalyzer.

Cholesterol Biosynthesis = assay: In Vivo Cholesterol Biosynthesis Inhibition in Rats with Oral Administration of Test Compounds (compound 13, gavage); parameters: species or system Male Sprague-Dawley rats; conditions: rat plasma, 7 days; for 14C-Acetate Incorporation / Cholesterol Levels, HDL / 14C-Acetate Incorporation, Inhibition: gavage; for 14C-Acetate Incorporation: control 1200 ± 95; for Cholesterol Levels, HDL / Cholesterol Levels, Total: mean ± S.E.; for Cholesterol Levels, HDL: control 32 ± 2.1; for 14C-Acetate Incorporation, Inhibition: vs control; for Cholesterol Levels, Total: three daily doses via gavage, control 77.6 ± 2.3
Protocol: (b.) In Vivo Cholesterol Biosynthesis Inhibition in Rats with Oral Administration of Test Compounds:
Male Sprague-Dawley rats weighing 120 to 150 g were used. The animals were placed on a cholesterol-free diet immediately upon arrival and housed in a room with a reverse light cycle. One week after they had adapted to the light cycle, the experiment was begun by gavaging the animals three times daily with various amounts of test compound 13 suspended in 1.0 mL of saline. The control group received 1.0 mL of saline alone. On the seventh day of the experiment, sodium 1-^14 C! acetate (20 μCi/rat) was injected intraperitoneally 30 min after the oral administration (gavage) of test compounds and 2 h before the mid-dark point in the diurnal cycle; 4 h after the ^14 C-acetate injection, the animals were killed and blood samples were collected after decapitation. Plasma was obtained by centrifuging blood in an EDTA-treated centrifuge tube at 3000 rpm for 10 min. Cholesterol synthesis was measured by determining the level of ^14 C-labeled nonsaponifiable lipid present in 1.0 mL of plasma; 1.0 mL of plasma was first mixed with 1.0 mL of saline, followed by 5.0 mL of 10% KOH in absolute ethanol. Samples were saponified at 75° C. for 1 h. After cooling, 44,000 dpm, 0.5 nmol of 1,2-^3 H! cholesterol was added to each sample as an internal standard for calculating recovery through the extraction procedure. Samples were extracted once with 5 mL of petroleum ether, and the organic phase was backwashed with 5 mL of saline. The extracts were dried on a nitrogen evaporator, and the residue was reconstituted into 0.5 mL of CHCl3 -MeOH (2:1). The 0.5-mL reconstituted samples were transferred into counting vials containing 2 mL of ethanol, and both ^3 H and ^14 C were counted in 10 mL of scintillation fluid. The ^3 H-cholesterol internal standard recovery value from each sample was used to correct each sample to 100% recovery of ^14 C-cholesterol. The total cholesterol level and HDL in each plasma sample was also measured. The comparison between test groups and the control group was evaluated for both cholesterol levels and ^14 C-acetate incorporation.

[2] = Day 0, cholesterol-free diet containing 0.2% inhibitor, control 29 ± 0.9
[3] = Day 0, cholesterol-free diet containing 0.2% inhibitor, control 70 ± 1
[4] = Day 4, cholesterol-free diet containing 0.2% inhibitor, control 28 ± 2
[5] = Day 4, cholesterol-free diet containing 0.2% inhibitor, control 77 ± 2
[6] = Day 7, cholesterol-free diet containing 0.2% inhibitor, control 26 ± 2
[7] = Day 7, diet containing 0.2% inhibitor, control 76 ± 4, ^b significantly lower than Day 0 (P < 0.001), pair-fed (P < 0.005) and control (P < 0.001), ^c significantly lower than pair-fed (P < 0.02)
[8] = Day 10, cholesterol-free diet containing 0.2% inhibitor, control 32 ± 1.5
[9] = Day 10, cholesterol-free diet containing 0.2% inhibitor, control 81 ± 3

CC(C)CCC[C@@H](C)[C@H]1Cc2nnc3c4c2[C@]1(C)CC[C@@H]4[C@@]1(C)CC[C@H](O)C[C@@H]1C3 [Compound 13, pyridazino 3',4',5',6':7,8,14,15!5α-cholestan-3β-ol]
Cholesterol levels, LDL [1, 2]: 34 ± 1.8 mg/100 mL | Cholesterol Levels, Total [1, 3]: 74 ± 1 mg/100 mL | Cholesterol levels, LDL [1, 4]: 28 ± 2 mg/100 mL | Cholesterol Levels, Total [1, 5]: 62 ± 2 mg/100 mL | Cholesterol levels, LDL [1, 6]: 17 ± 3 mg/100 mL | Cholesterol Levels, Total [1, 7]: 46 ± 3 mg/100 mL | Cholesterol levels, LDL [1, 8]: 29 ± 2 mg/100 mL | Cholesterol Levels, Total [1, 9]: 47 ± 5 mg/100 mL | 14C-Acetate Incorporation (Cholesterol Biosynthesis; 0.16 mg/rat/day): 696 ± 107 cpm/ml | Cholesterol Levels, HDL (Cholesterol Biosynthesis; 0.16 mg/rat/day): 44.0 ± 10.6 Mg/100 ml | 14C-Acetate Incorporation, Inhibition (Cholesterol Biosynthesis; 0.16 mg/rat/day): 42% | Cholesterol Levels, Total (Cholesterol Biosynthesis; 0.16 mg/rat/day): 66.8 ± 3.4 Mg/100 ml | 14C-Acetate Incorporation (Cholesterol Biosynthesis; 0.33 mg/rat/day): 510 ± 122 cpm/ml | Cholesterol Levels, HDL (Cholesterol Biosynthesis; 0.33 mg/rat/day): 27.6 ± 3.5 Mg/100 ml | 14C-Acetate Incorporation, Inhibition (Cholesterol Biosynthesis; 0.33 mg/rat/day): 58% | Cholesterol Levels, Total (Cholesterol Biosynthesis; 0.33 mg/rat/day): 62.6 ± 2.4 Mg/100 ml | 14C-Acetate Incorporation (Cholesterol Biosynthesis; 1.0 mg/rat/day): 385 ± 47 cpm/ml | Cholesterol Levels, HDL (Cholesterol Biosynthesis; 1.0 mg/rat/day): 28.6 ± 1.9 Mg/100 ml | 14C-Acetate Incorporation, Inhibition (Cholesterol Biosynthesis; 1.0 mg/rat/day): 68% | Cholesterol Levels, Total (Cholesterol Biosynthesis; 1.0 mg/rat/day): 61.4 ± 3.0 Mg/100 ml | 14C-Acetate Incorporation (Cholesterol Biosynthesis; 3.0 mg/rat/day): 383 ± 38 cpm/ml | Cholesterol Levels, HDL (Cholesterol Biosynthesis; 3.0 mg/rat/day): 28.8 ± 4.3 Mg/100 ml | 14C-Acetate Incorporation, Inhibition (Cholesterol Biosynthesis; 3.0 mg/rat/day): 69% | Cholesterol Levels, Total (Cholesterol Biosynthesis; 3.0 mg/rat/day): 60.8 ± 0.9 Mg/100 ml | 14C-Acetate Incorporation (Cholesterol Biosynthesis; 7.5 mg/rat/day): 340 ± 50 cpm/ml | Cholesterol Levels, HDL (Cholesterol Biosynthesis; 7.5 mg/rat/day): 14.3 ± 0.33 Mg/100 ml | 14C-Acetate Incorporation, Inhibition (Cholesterol Biosynthesis; 7.5 mg/rat/day): 72% | Cholesterol Levels, Total (Cholesterol Biosynthesis; 7.5 mg/rat/day): 44.0 ± 1.0 Mg/100 ml

CC(C)CCC[C@@H](C)[C@H]1CC(=O)C2=C3CC[C@H]4C[C@@H](O)CC[C@]4(C)[C@H]3CC[C@@]21C [Compound 27, 3β-Hydroxy-5α-cholest-8(14)-ene-15-one, reference compound]
Cholesterol levels, LDL [1, 2]: 34 ± 2 mg/100 mL | Cholesterol Levels, Total [1, 3]: 74 ± 3 mg/100 mL | Cholesterol levels, LDL [1, 4]: 31 ± 2 mg/100 mL | Cholesterol Levels, Total [1, 5]: 69 ± 2 mg/100 mL | Cholesterol levels, LDL [1, 6]: 23 ± 2 mg/100 mL | Cholesterol Levels, Total [1, 7]: 48 ± 4 mg/100 mL | Cholesterol levels, LDL [1, 8]: 41 ± 1.5 mg/100 mL | Cholesterol Levels, Total [1, 9]: 66 ± 2 mg/100 mL
